Measured values as given in patent US8653258B2, “Compositions for regulating or modulating quorum sensing in bacteria, methods of using the compounds, and methods of regulating or modulating quorum sensing in bacteria” (Georgia State University Research Foundation, Inc., priority 2007, dated 2014).
“And” between values parts separate entries of the source, which are not always exact repeats. Equal entries are not always repeated. Where two headings read alike, the source gives them in different places.

Key:
V. harveyi = test: Bacterial growth curves (doubling time); format: cell-based, Vibrio harveyi
Description: To make sure that the observed luminescence intensity changes were not due to inhibition of bacterial growth, the effect of these boronic acids on bacterial growth was also studied.

[1] = test system: AI-2-mediated quorum sensing; test: microbe, parasite or virus in culture; format: cell-based, Vibrio harveyi; conditions: tested at least 3 times
Description: The candidate compounds identified as described in Example 1, above, were tested for their ability to inhibit AI-2 induced quorum sensing using the MM32 strain of V. harveyi. […] The V. harveyi bacteria can also emit luminescence upon AI-2 induced quorum sensing stimulation. Therefore, the ability of the “virtually” identified compounds to inhibit luminescence production in the presence of DPD and boric acid was examined.
MM32 bacteria were streak-seeded on fresh LM plates and cultured in the presence of kanamycin (50 μg/mL) and chloramphenicol (10 μg/mL). Colonies appeared after overnight incubation at 30° C. A single colony was picked up from the LM plate. This strain was grown for 16 hrs with aeration at 175 r.p.m and at 30° C. in 2 mL of Autoinducer Bioassay (AB) medium with antibiotics (kanamycin 50 μg/mL and chloramphenicol 10 μg/mL). The culture was then diluted to an OD600 0.7. This preinoculum was grown in AB-Fe medium with 1.2 mM of iron to OD600 1.0-1.1. The resulting inoculum culture was then diluted 5000-fold in fresh AB medium.
Solutions of the test compounds in AB medium were prepared in 96-well plates. To these solutions, freshly synthesized DPD (pH=7) solution was added for a final concentration of 5 μM. Boric acid was added to give a final concentration of 1 mM. After the addition of bacteria in AB medium, the micro plates were covered with a non-toxic plate sealer and incubated at 30° C. with aeration for 3-4 hrs.
In an initial round of screening, the concentration of the test compounds was fixed at 100 μg/mL (about 200-600 μM).

[2] = test system: AI-2-mediated gene expressions; conditions: at about 323 μM; cited from earlier work
cysteines in protein = conditions: read-out: EC50, covalent modification of cysteines in protein; cited from earlier work
[3] = compound at 125 μM, control 79.4 min
[4] = V. harveyi MM32, DPD 5 μM, boric acid 1 mM, read-out: IC50 value, inhibition of AI-2-mediated quorum sensing (V. harveyi luminescence)
[5] = Vibrio harveyi, read-out: IC50 value, inhibition of AI-2-mediated quorum sensing (V. harveyi luminescence), V. harveyi MM32, DPD 5 μM, boric acid 1 mM

Row | SMILES | IC50 [1, 5] | other results
1 | OB(O)c1cncc2ccccc12 [Compound 4-IQBA] | – | doubling time (V. harveyi; [3]): 80.4 min; IC50 [1, 4]: 66 µM and 66.1 µM
2 | CC(C)OC(=S)CS(=O)(=O)c1ccccc1 [Compound 23] | 33 ± 4 µM | –
3 | OB(O)c1cccc2cnccc12 [Compound 5-IQBA] | – | doubling time (V. harveyi; [3]): 99.2 min; IC50 [1, 4]: 30 µM and 30.4 µM
4 | CCCS(=O)(=O)CC(=S)OCC [Compound H26] | 21.6 ± 2.9 µM | –
5 | CCCCC1=C(Br)/C(=C/Br)OC1=O [(5Z)-4-bromo-5-(bromomethylene)-3-butyl-2(5H)-furanone] | – | inhibition of AI-2-mediated gene expressions [2]: inhibit many AI-2-mediated gene expressions
6 | CCOC(=O)CS(=O)(=O)c1ccc(-c2ccc(C)cc2)cc1 [Compound H21] | 8.2 ± 2.3 µM | –
7 | CCOC(=S)CS(=O)(=O)c1ccc(OC)cc1 [Compound H18] | 26 ± 3.5 µM | –
8 | c1ccc2c(c1)Nc1ccccc1S2 [Compound 62, phenothiazine] | 10 µM | effect on bacterial growth (V. harveyi): not due to growth inhibition; doubling time (V. harveyi; compound at 20 μM, control 78.9 min): 72.3 min; IC50 ([1]; read-out: IC50 value, inhibition of AI-2-mediated quorum sensing (V. harveyi luminescence), V. harveyi MM32, DPD 5 μM, boric acid 1 mM): 10.7 ± 3.7 µM
9 | CCOC(=O)CS(=O)(=O)c1ccc(-c2ccc3c(c2)OCCO3)cc1 [Compound H20] | 157 ± 43 µM | –
10 | CCOC(=S)CS(=O)(=O)c1ccc(Br)cc1 [Compound H14] | 13.8 ± 2 µM | –
11 | O=CC=Cc1ccccc1 [cinnamaldehyde] | – | EC50 (cysteines in protein): 19 µM
12 | Oc1cccc(O)c1O [Compound 61, pyrogallol] | 2 µM | effect on bacterial growth (V. harveyi): not due to growth inhibition; doubling time (V. harveyi; compound at 5 μM, control 78.9 min): 78.4 min
13 | Oc1ccccc1O [Compound 63, catechol] | 59 ± 9 µM | –
14 | CCOC(=O)CS(=O)(=O)c1cccc(Br)c1 [Compound H28] | 162 ± 22 µM | –
15 | CCOC(=O)CS(=O)(=O)c1ccc(-c2ccc(C(N)=O)cc2)cc1 [Compound H24] | 31.3 ± 23 µM | –
